Tests used:
[1] = tested on: CUG RNA foci in primary DM1 patient myoblasts; test: DOUBLE-cut screening: FISH staining of RNA foci in primary DM1 patient myoblasts; assay type: cell-based, human; details: sgRNA pair RNP, 72 hrs post nucleofection; for % of CUG foci free nuclei (DNA-PKi): 3 μM Compound 6 for 48 hrs; for % of CUG foci free nuclei (Vehicle): DMSO 48 hrs
Description: (§1) RNPs were assembled with recombinant SaCas9 protein (Aldevron) and chemically modified sgRNAs (Synthego) at a ratio of 1:3 (protein:sgRNA). For SINGLE-cut screening, RNP complexes were assembled with 30 pmol of SaCas9 and 90 pmol of sgRNA in P5 Primary Cell Nucleofector Solution (Lonza). After incubation at room temperature for 20 minutes, 10 μL of RNP complex was mixed with two hundred thousand primary myoblasts resuspended in 10 μL of P5 Nucleofector Solution. For DOUBLE-cut screening, RNP complexes were first assembled for individual sgRNAs with 20 pmol of SaCas9 protein and 60 pmol of sgRNAs in 5 μL of P5 Nucleofector Solution. After incubation at room temperature for 20 minutes, the two RNP complexes (one for upstream sgRNA and one for downstream sgRNA) were mixed at 1:1 ratio and then further mixed with two hundred thousand primary myoblasts resuspended in 10 μL of P5 Nucleofector Solution.
(§2) The Nucleofector 96-well Shuttle System (Lonza) was used to deliver the SaCa9/sgRNA RNPs into primary DM1 patient myoblasts using the nucleofection program CM138. Following nucleofection, myoblasts from each well of nucleofection shuttle were split into six wells of the 96-well cell culture plate (Greiner, 655090) coated with matrigel. The first three wells were treated with DMSO for 48 hrs before changing to fresh myoblast growth medium, and the other three wells were treated with 3 μM of DNA-PKi Compound 6 for 48 hrs before changing to fresh myoblast growth medium. 72 hrs post nucleofection, two wells of DMSO-treated myoblasts and two wells of DNA-PKi-treated myoblasts from each nucleofection were harvested for genomic DNA extraction using the Kingfisher Flex purification system (Thermal Fisher), whereas one well of DMSO-treated myoblasts and one well of DNA-PKi-treated myoblasts were stained for RNA foci by FISH staining.
Primary myoblasts were fixed for 15 min with 4% paraformaldehyde (PFA) and washed five times with 1×PBS for 10 min each at room temperature. Before staining, cells were permeabilized with 0.5% triton X-100 in 1×PBS for 5 min at room temperature, and then washed with 30% formamide and 2× saline-sodium citrate (SSC) mixture for 10 min at room temperature. Cells were then stained with 1 ng/μL of Cy3-PNA(CAG) 5 probe (PNA Bio, F5001) diluted in 30% formamide, 2×SSC, 2 μg/mL BSA, 66 μg/mL yeast tRNA, and 2 mM vanadyl complex for 15 min at 80° C. Following probe staining, cells were then washed in 30% formamide and 2×SSC mixture for 30 min at 42° C., then washed in 30% formamide and 2×SSC mixture for 30 min at 37° C., and then washed in 1×SSC solution for 10 min at room temperature, and finally washed in 1×PBS for 10 min at room temperature. Cells were next stained with anti-MBNL1 antibody (Santa Cruz, 3A4) diluted in 1% bovine serum albumin (BSA) for overnight at 4° C., and washed twice with 1×PBS for 10 min each at room temperature. Cells were then incubated with the secondary antibody goat […] Alexa 647 (Thermo Fisher, A32728) diluted in 1% BSA for 1 hr at room temperature, and washed twice with 1×PBS for 10 min each at room temperature. Next, cells were stained with Hoechst solution (Thermo Fisher, H3569) at 0.1 mg/ml for 5 min, and washed once with 1×PBS for 5 min. PBS was aspirated and fresh 100 μl of fresh PBS was added to each well. High-throughput acquisition of images was completed with the ImageXpress Micro Confocal High-Content Imaging System (Molecular Devices). RNA foci quantifications were accomplished with a customized analysis module of the MetaXpress program (Molecular Devices).
Next, DOUBLE-cut screening was performed to assess the efficiency of paired sgRNAs-induced CTG repeat excision and RNA foci reduction. 90 SaCas9 sgRNA pairs formed by one upstream sgRNA and one downstream sgRNA were assembled with recombinant SaCas9 protein into RNP complex and nucleofected into primary DM1 patient myoblasts. […]

[2] = tested on: CTG repeat expansion in the 3′ UTR of human DMPK gene; test: DOUBLE-cut screening: CTG repeat excision by loss-of-signal ddPCR in primary DM1 patient myoblasts; assay type: cell-based; details: sgRNA pair RNP, mean of upstream and downstream ddPCR assays; for % of CTG repeat excision efficiency by ddPCR (DNA-PKi): 3 μM Compound 6 for 48 hrs; for % of CTG repeat excision efficiency by ddPCR (Vehicle): DMSO 48 hrs
Description: as §1, §2
The primers and probes of ddPCR were designed using the online primer design software Primer3Plus (http://www.bioinformatics.nl/cgi-bin/primer3plus/primer3plus.cgi). The two Target primers/probe sets were used to detect CTG repeat excision, and the Reference primers/probe set was used to amplify a region located in Exon 1 of human DMPK gene and it served as a reference control for the Target sets. The 24 μL of ddPCR reaction consisted of 12 μL of Supermix for Probes (no dUTP) (Bio-Rad Laboratories), 1 μL of Reference primers mix (21.6 μM), 1 μL of Reference probe (6 μM), 1 μL of Target primers mix (21.6 μM), 1 μL of Target probe (6 μM), and 8 μL of sample genomic DNA. Droplets were generated using probe oil with the QX200 Droplet Generator (Bio-Rad Laboratories). Droplets were transferred to a 96-well PCR plate, sealed and cycled in a C1000 deep well Thermocycler (Bio-Rad Laboratories) under the following cycling protocol: 1 cycle at 95° C. for 10 min; 40 cycles of 94° C. for 30 sec, and 58° C. for 1 min; 1 cycle at 98° C. for 10 min (for enzyme inactivation). The cycled plate was then transferred and read in the FAM and HEX channels using the Bio-Rad QX200 Droplet Reader (Bio-Rad Laboratories). ddPCR analysis was performed with the Bio-Rad QuantaSoft Pro Software.
Next, DOUBLE-cut screening was performed to assess the efficiency of paired sgRNAs-induced CTG repeat excision and RNA foci reduction. 90 SaCas9 sgRNA pairs formed by one upstream sgRNA and one downstream sgRNA were assembled with recombinant SaCas9 protein into RNP complex and nucleofected into primary DM1 patient myoblasts. Nucleofected myoblasts were treated with either DMSO (vehicle) or 3 μM of Compound 6 (DNA-PKi) for 48 hrs. 72 hrs post nucleofection, myoblasts were subjected to either genomic DNA isolation or RNA foci staining.
One upstream and one downstream loss-of-signal droplet digital PCR (ddPCR) assays were used to determine the efficiency of CTG repeat excision. ddPCR signals would be abolished upon excision of the CTG repeat expansion in these loss-of-signal ddPCR assays. […]

Row | Substance | % of CUG foci free nuclei (DNA-PKi) [1] | % of CUG foci free nuclei (Vehicle) [1] | % of CTG repeat excision efficiency by ddPCR (DNA-PKi) [2] | % of CTG repeat excision efficiency by ddPCR (Vehicle) [2]
1 | SaU1 + SaD2: SaCas9 sgRNA pair, SEQ ID NOs: 1 and 10 (guide 1 GCCCCGGAGTCGAAGACAGTTC; guide 2 TCGGCCAGGCTGAGGCCCTGAC; listed as DNA, chemistry not fully specified) | 84.27% | 76.74% | 54.31% | 47.82%
2 | SaU1 + SaD3: SaCas9 sgRNA pair, SEQ ID NOs: 1 and 11 (guide 1 GCCCCGGAGTCGAAGACAGTTC; guide 2 CAACGATAGGTGGGGGTGCGTG; listed as DNA, chemistry not fully specified) | 81.32% | 47.32% | 52.18% | 33.47%
3 | SaU1 + SaD4: SaCas9 sgRNA pair, SEQ ID NOs: 1 and 12 (guide 1 GCCCCGGAGTCGAAGACAGTTC; guide 2 ACTTTGCGAACCAACGATAGGT; listed as DNA, chemistry not fully specified) | 87.86% | 81.45% | 61.00% | 41.92%
4 | SaU1 + SaD5: SaCas9 sgRNA pair, SEQ ID NOs: 1 and 13 (guide 1 GCCCCGGAGTCGAAGACAGTTC; guide 2 GGGTTTGGCAAAAGCAAATTTC; listed as DNA, chemistry not fully specified) | 82.90% | 70.23% | 53.67% | 30.65%
5 | SaU1 + SaD6: SaCas9 sgRNA pair, SEQ ID NOs: 1 and 14 (guide 1 GCCCCGGAGTCGAAGACAGTTC; guide 2 CTTTTGCCAAACCCGCTTTTTC; listed as DNA, chemistry not fully specified) | 70.98% | 31.66% | 49.69% | 32.51%
6 | SaU1 + SaD7: SaCas9 sgRNA pair, SEQ ID NOs: 1 and 15 (guide 1 GCCCCGGAGTCGAAGACAGTTC; guide 2 GGGGCGCGGGATCCCCGAAAAA; listed as DNA, chemistry not fully specified) | 80.16% | 49.51% | 56.69% | 34.21%
7 | SaU1 + SaD10: SaCas9 sgRNA pair, SEQ ID NOs: 1 and 18 (guide 1 GCCCCGGAGTCGAAGACAGTTC; guide 2 TTGGGGGTCCTGTAGCCTGTCA; listed as DNA, chemistry not fully specified) | 84.12% | 75.91% | 61.44% | 37.72%
8 | SaU1 + SaD11: SaCas9 sgRNA pair, SEQ ID NOs: 1 and 19 (guide 1 GCCCCGGAGTCGAAGACAGTTC; guide 2 CAAAACGTGGATTGGGGTTGTT; listed as DNA, chemistry not fully specified) | 74.03% | 41.32% | 52.38% | 26.52%
9 | SaU1 + SaD12: SaCas9 sgRNA pair, SEQ ID NOs: 1 and 20 (guide 1 GCCCCGGAGTCGAAGACAGTTC; guide 2 TCAGTGCATCCAAAACGTGGAT; listed as DNA, chemistry not fully specified) | 84.94% | 69.78% | 63.43% | 37.77%
10 | SaU1 + SaD13: SaCas9 sgRNA pair, SEQ ID NOs: 1 and 21 (guide 1 GCCCCGGAGTCGAAGACAGTTC; guide 2 CCCAACAACCCCAATCCACGTT; listed as DNA, chemistry not fully specified) | 74.44% | 35.75% | 54.59% | 25.67%
11 | SaU1 + SaD15: SaCas9 sgRNA pair, SEQ ID NOs: 1 and 23 (guide 1 GCCCCGGAGTCGAAGACAGTTC; guide 2 GACAATAAATACCGAGGAATGT; listed as DNA, chemistry not fully specified) | 85.70% | 72.80% | 64.96% | 37.54%
12 | SaU1 + SaD17: SaCas9 sgRNA pair, SEQ ID NOs: 1 and 25 (guide 1 GCCCCGGAGTCGAAGACAGTTC; guide 2 TTTATTCGCGAGGGTCGGGGGT; listed as DNA, chemistry not fully specified) | 75.32% | 45.51% | 53.66% | 26.29%
13 | SaU7 + SaD2: SaCas9 sgRNA pair, SEQ ID NOs: 7 and 10 (guide 1 CGCGGCCGGCGAACGGGGCTCG; guide 2 TCGGCCAGGCTGAGGCCCTGAC; listed as DNA, chemistry not fully specified) | 81.28% | 70.29% | – | –
14 | SaU8 + SaD2: SaCas9 sgRNA pair, SEQ ID NOs: 8 and 10 (guide 1 GGCTCGAAGGGTCCTTGTAGCC; guide 2 TCGGCCAGGCTGAGGCCCTGAC; listed as DNA, chemistry not fully specified) | 82.91% | 76.39% | – | –

From patent US20240181081A1, “Compositions and Methods for Treatment of Myotonic Dystrophy Type 1 with CRISPR/SACAS9” (Vertex Pharmaceuticals Incorporated, priority 2021, published 2024)
